“Also recorded” adds a separate entry of the source.
How the values were obtained:
[1] = system: children with FIC1 or BSEP deficiencies (PFIC); experiment: INDIGO open-label Phase 2 long-term efficacy and safety study; assay type: in vivo, human; settings: for tolerability: up to 5 years of treatment
Description: INDIGO investigated the effect of maralixibat on sBA levels and cholestatic pruritus, alongside other biochemical markers of cholestasis and liver disease in these patients.
The study was conducted at 12 hospitals in France, Poland, the United Kingdom, and the United States. Screening evaluations were performed in the 6 weeks prior to the start of the study. In patients without documented ATP8B1 or ABCB11 mutations, genetic testing was performed.
The primary efficacy endpoint was the change in mean fasting sBA levels from Baseline to Week 13 in the overall intent-to-treat (ITT) study population. The key secondary efficacy endpoint was the mean change in observer-rated pruritus (Itch Reported Outcome Observer [ItchRO(Obs)]) score from Baseline to Week 13 in the overall ITT study population. Other secondary efficacy endpoints included the mean changes from Baseline to Week 13 in total cholesterol, low- and high-density lipoprotein cholesterol (LDL-C and HDL-C, respectively), and serum triglyceride levels in the overall ITT study population. Additional efficacy and safety analyses included the change from Baseline to Week 72 and Week 240 in sBA levels, patient height and weight, bile acid synthesis (as determined by the ratio between sBA levels and 7α-hydroxy-4-cholesten-3-one [7α-C4] levels), quality of life as measured by the Pediatric Quality of Life Inventory™ (PedsQL™), mean changes in ALT, aspartate aminotransferase (AST), and bilirubin (total and direct), lipid profiles, and FSV levels. The ItchRO assessment was not performed at Week 72, so data from Week 48 were used instead.
Efficacy and safety analyses were performed for the overall ITT study population as well as the two PFIC subtypes (FIC1 deficiency and BSEP deficiency) separately. Patients with BSEP deficiency were analyzed overall and according to their mutation type (t-BSEP and nt-BSEP). Long-term changes in pruritus scores, patient height, blood lipids, liver parameters, and transplant-free survival were assessed according to a responder analysis.
Quantitative analysis of the 15 major sBAs and serum 7α-C4 was performed at a single site (Cincinnati) by stable isotope dilution electrospray ionization liquid chromatography-mass spectrometry (LCMS/MS) using a fully validated proprietary assay that complies with College of American Pathologists/Clinical Laboratory Improvement Amendments certification. The study protocol defined a composite response to maralixibat as achieving a ≥1.0-point reduction in ItchRO(Obs) score and a ≥70% reduction or normalization of sBA levels from Baseline. […] Pruritus was measured using the ItchRO tool, which was specifically developed and validated to evaluate pruritus in children with cholestatic liver diseases, based on a five-point scale where 0=‘none’ and 4=‘very severe’. […] The ItchRO measure was completed twice daily via an eDiary. Parents/caregivers completed the ItchRO(Obs) assessment for all patients. Additionally, children ≥9 years of age completed the ItchRO(Pt) assessment. Levels of ALT, AST, bilirubin (total and direct), lipids, and FSV were assessed using standard clinical laboratory techniques. Quality of life was assessed using the PedsQL™ questionnaire. […] The occurrence of treatment-emergent adverse events (TEAEs) and serious adverse events (SAEs) was assessed throughout the study.

[2] = system: patients with PFIC due to BSEP deficiency (nontruncated BSEP mutation); experiment: INDIGO long-term study, sBA control after >4.5 years of MRX; assay type: in vivo, human
Description: Maralixibat (MRX) is an ileal bile acid transport (IBAT) inhibitor approved for the treatment of pruritus in patients with Alagille syndrome aged 1 year and older and under evaluation in patients with PFIC.

[3] = patients with sBA control, to Week 237, p<0.05

SMILES: CCCCC1(CCCC)CS(=O)(=O)c2ccc(N(C)C)cc2[C@@H](c2ccc(OCc3ccc(C[N+]45CCN(CC4)CC5)cc3)cc2)[C@H]1O [maralixibat]
- sBA responders who achieved response during once-daily dosing ([1]; 266 μg/kg once daily): six and Six
- sBA responders who achieved response after switching to twice-daily dosing ([1]; 266 μg/kg twice daily, after Week 97): one
- TEAE cough, patients ([1]; 18 patients): 55%
- TEAE diarrhea, patients ([1]; 19 patients): 58%
- TEAE pyrexia, patients ([1]; 20 patients): 61%
- TEAEs mild or moderate in severity ([1]; 33 patients): 58%
- patients who experienced ≥1 TEAE ([1]; 33 patients, result in words): All patients
- sBA non-responders with transplant-free survival after >5 years ([1]; P<0.001 vs sBA responders, result in words): none
- mean reduction from Baseline in ItchRO(Obs) score ([1]; Week 13, ITT population, 95% CI −1.04, −0.53, P<0.001): −0.8
- mean reduction from Baseline in ItchRO(Pt) score ([1]; Week 13, ITT population, 95% CI −1.55, −0.47, P=0.002): −1.0
- patients with serious TEAEs ([1]; during the study): 15 patients
- patients with FIC1 deficiency who met the sBA responder criteria ([1]; eight patients with FIC1 deficiency, result in words): No patient
- SAEs abdominal pain, diarrhea, and gastroenteritis ([1]; in vivo): two
- patients who discontinued due to adverse events or liver transplantation following disease progression ([1]; in vivo): 12 patients
- sBA responders listed for liver transplantation who were removed from the transplant waiting list ([1]; listed for refractory pruritus at the beginning of the study): Two
- patients with nt-BSEP who achieved sBA response ([1]; n=19 nt-BSEP): 37%
- patients with nt-BSEP with rapid and sustained reductions in sBA levels ([1]; of 19 patients with nt-BSEP): 6 patients
- patients with nt-BSEP who achieved sBA response (reduction >75% from baseline or <102.0 μmol/L) ([1]; of 19 with nt-BSEP, during the study): seven
- patients who discontinued maralixibat due to an adverse event ([1]; one with FIC1 deficiency, seven with BSEP deficiency): Eight
- change in sBA levels from Baseline to Week 13 ([1]; overall ITT population (33 patients), 95% CI −74.830, 41.070, P=0.884): -16.9 µmol/L
- mean levels of sBA, ItchRO(Obs) scores, and PedsQL scores versus Baseline ([1]; patients with FIC1 deficiency, long-term, result in words): did not change significantly
- change in mean level of serum 7α-C4 ([1]; patients with nt-BSEP, Week 240, 95% CI 4.07, 48.50, P=0.027): +26.29 ng/mL
- deaths during the study ([1]; result in words): No deaths
- effect on levels of FSV or liver transaminases ([1]; result in words): did not have any significant detrimental effects
- sBA non-responders with clinically meaningful (>1.0 points) reduction in ItchRO(Obs) ([1]; sBA non-responders): Three
- change in weight z-score (decrease) ([1]; sBA non-responders, Week 72, 95% CI −0.606, −0.012): −0.30
- time to decrease of sBA levels upon treatment initiation ([1]; sBA responders): 2-4 Weeks
- change from Baseline in mean height z-score ([1]; sBA responders, Week 72, 95% CI 0.369, 0.976, P=0.0016): 0.67
- change from Baseline in mean weight z-score ([1]; sBA responders, Week 72, 95% CI −0.001, 0.603, P=0.051): 0.30
- serum ALT, AST, and bilirubin levels ([1]; sBA responders, if elevated at Baseline, result in words): improvements and/or normalization
- change in mean PedsQL score from Baseline to Week 240 ([1]; sBA responders, 95% CI 6.7, 40.6, P=0.014): 24 points
- 7α-C4/sBA ratio compared with Baseline ([1]; sBA responders, result in words): generally increased; also recorded: increased rapidly
- patients with t-BSEP who met the sBA responder criteria ([1]; six patients with t-BSEP, result in words): No patients and No patient and none
- tolerability ([1]; result in words): generally safe and well tolerated
- tolerability ([1]; result in words, listed as Maralixibat): generally well-tolerated; also recorded: generally well tolerated
- listing for liver transplant ([2]; after >4.5 years of MRX, result in words): No ongoing patients were listed for liver transplant
- long-term safety and tolerability ([2]; most frequent TEAEs mild to moderate, result in words): safe and well tolerated
- patients who achieved sBA control and remained on-study as of Week 237 ([2]; of n=19 with nontruncated BSEP mutation, sBA threshold ≤100 μmol/L): 7 patients
- pruritus ([2]; p<0.001, result in words): improved significantly
- Growth (height z-score) ([2]; p<0.01, result in words): improved significantly
- native liver survival ([2]; patients who achieved control of sBA during MRX treatment): > 4.5 years
- mean sBA value ([2]; patients with sBA control, Week 237, vs. 299.6 μmol/L at baseline): 44.2 (38.8) μmol/L
- mean direct bilirubin value ([2]; patients with sBA control, Week 237, vs. 0.6 at BL): 0.1 mg/dL
- mean total bilirubin value ([2]; patients with sBA control, Week 237, vs. 0.8 at BL): 0.7 mg/dL
- mean ALT value ([2]; patients with sBA control, Week 237, vs. 57.9 at BL): 16.7 U/L
- mean AST value ([2]; patients with sBA control, Week 237, vs. 62.1 at BL): 26.7 U/L
- Mean (SE) sBA reduction [2, 3]: 234.4 (80.5) μmol/L
- Mean reduction in ALT [2, 3]: 41.1 (14.3) U/L
- Mean reduction in AST [2, 3]: 35.4 (11.5) U/L
- Mean reduction in direct bilirubin ([2]; patients with sBA control, to Week 237, p=0.13): 0.4 (0.2) mg/dL
- Mean reduction in total bilirubin ([2]; patients with sBA control, to Week 237, p=0.8): 0.1 (0.3) mg/dL
- bilirubin in those with abnormal bilirubin ([2]; result in words): normalized

— patent US20230190743A1, “TREATMENT WITH ILEAL BILE ACID TRANSPORTER (IBAT) INHIBITORS FOR INCREASED EVENT-FREE SURVIVAL (EFS)” (Mirum Pharmaceuticals, Inc., priority 2021, published 2023)
